According to ChEMBL document CHEMBL4419180, “Compositions and methods for treating g protein coupled receptor mediated conditions” (2018):
Calls of active or inactive are those of the source. The rule behind the calls is not given here. Non-standard residues stand in square brackets, D forms with d. Residues, ends and D or L forms follow the SMILES beside them. *: point of attachment. Boc = CC(C)(C)OC(=O)*; OBn = c1ccc(CO*)cc1; For = O=C*

How the values were obtained:
[1] = tested on: Mus musculus; test: Suppression of bilirubin-induced pruritus in mouse assessed as reduction in scratching bouts in 30 mins at 0.25 mg/kg co-injected with bilirubin; type: functional, organism-based
[2] = tested on: Mus musculus; test: Suppression of chloroquine-induced pruritus in mouse assessed as reduction in scratching bouts in 30 mins at 1 mg/kg co-injected with chloroquine; type: functional, organism-based
[3] = tested on: Mus musculus; test: Suppression of ANIT-induced cholestatic pruritus in mouse assessed as reduction in scratching bouts in 30 mins at 1 mg/kg, ip 30 mins before behavioral analysis; type: functional, organism-based
[4] = tested on: Mus musculus; test: Suppression of ANIT-induced cholestatic liver injury in mouse assessed as effect on total bilirubin at 1 mg/kg, ip; type: functional, organism-based
[5] = tested on: Mus musculus; test: Suppression of ANIT-induced cholestatic liver injury in mouse assessed as effect on ALT level at 1 mg/kg, ip; type: functional, organism-based
[6] = tested on: Mus musculus; test: Suppression of ANIT-induced cholestatic liver injury in mouse assessed as effect on AST level at 1 mg/kg, ip; type: functional, organism-based
[7] = tested on: Mus musculus; test: Suppression of ANIT-induced cholestatic liver injury in mouse assessed as effect on ALP level at 1 mg/kg, ip; type: functional, organism-based
[8] = target: Mas-related G-protein coupled receptor member X4 (Homo sapiens) (UniProt Q96LA9); test: Antagonist activity at recombinant human MrgprX4 expressed in HEK293 cells assessed as blockade of bilirubin-induced inositol phosphate accumulation incubated for 1 hr at 37 degC followed by incubation for 30 mins at room temperature before bilirubin addition by HTRF assay relative to control; type: functional, cell-based
Mas-related G-protein coupled receptor member X4 (Homo sapiens), sequence (Q96LA9 whole entry): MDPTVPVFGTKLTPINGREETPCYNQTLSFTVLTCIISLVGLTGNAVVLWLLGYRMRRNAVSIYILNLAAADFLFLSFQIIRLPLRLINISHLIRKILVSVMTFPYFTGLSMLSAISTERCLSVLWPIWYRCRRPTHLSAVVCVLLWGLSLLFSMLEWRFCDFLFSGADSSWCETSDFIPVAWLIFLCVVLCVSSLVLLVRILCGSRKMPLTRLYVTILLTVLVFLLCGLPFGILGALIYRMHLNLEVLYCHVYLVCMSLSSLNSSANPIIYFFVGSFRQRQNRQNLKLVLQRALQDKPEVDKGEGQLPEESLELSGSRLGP

[9] = target: Mas-related G-protein coupled receptor member X4 (Homo sapiens) (UniProt Q96LA9); test: Inverse agonist activity at recombinant human MrgprX4 expressed in HEK293 cells assessed as reduction in inositol phosphate accumulation incubated for 1 hr at 37 degC followed by incubation for 30 mins at room temperature by HTRF assay relative to baseline; type: functional, cell-based

Row | Structure (SMILES) | inhibition [8] [%] | fold change (FC) [9] | also measured
1 | CC(C)(C)OC(=O)N[C@@H](CCC(N)=O)C(=O)N[C@H](Cc1cn(C=O)c2ccccc12)C(=O)N[C@@H](Cc1ccccc1)C(=O)OCc1ccccc1 (Boc-Gln-[dW](For)-Phe-OBn) |  |  | Activity [1]: Active; Activity [2]: inactive; Activity [3]: Active; Activity [4]: inactive; Activity [5]: inactive; Activity [6]: inactive; Activity [7]: inactive
2 | Cc1c(C(=O)NCc2ccccc2C(F)(F)F)ncn1Cc1ccc(Cl)cc1 | 85 | 3 | 
3 | Nc1nc2ccccc2n1CCOc1ccccc1Cl | 70 to 85 | 2 to 3 | 
4 | O=C(NCc1cc2ccccc2[nH]1)c1cc(-c2ccccn2)nc2ccc(Br)cc12 | 85 | 2 to 3 | 
5 | Cc1nc(-c2ccnn2Cc2ccc(Cl)cc2)[nH]c1-c1ccccc1 | 85 | 3 | 
